Measured values: patent publication US6541503B2, “Substituted oxindole derivatives as protein tyrosine kinase and as protein serine/threonine kinase inhibitors” (SmithKline Beecham Corporation, priority 1997, dated 2003)
pIC50: −log10 of the molar value.

Columns and labels:
[1] = system: HDF normal diploid fibroblast cells; test: FACS assay (cell death by flow cytometry), HDF; type: cell-based, human; settings: Homo sapiens, Fibroblast, 72 h, read-out: FACS HDF IC50
Protocol: These assays allow determination of both cell death and changes in cell cycle profile in cells following treatment of the compound. The assay is performend as follows:
1. Cells are incubated in DMEM to which 10% FCS has been added in a humidified incubator at 37° C. and 5% by volume of CO2 in air. The cells are innoculated in 6-well plates at a density of 0.5-5×10^5 cells per well.
2. The test compound is added in serial dilutions 24-36 h after plating in 0.5% DMSO. The plates are then incubated a further 72 h in the presence of the compound. During this time, cells in control cultures undergo at least three cell divisions.
3. After incubation, the media is collected and cells are harvested by trypsinization. The cells and media are pooled and pelleted by centrifugation.
4. The cell pellet is fixed in a final volume of 3 mL of 50% ice cold MeOH and incubated for a minimum of 30 min at −20° C.
5. The cells are pelleted by centrifugation and resuspended in 0.5 mL PBS containing 1%FCS, […] Propidium Iodide (PI) and 5 mg/mL RNase A and incubated 30 min at 37° C. in the dark.
6. The samples are analysed by flow cytometry using the relative incorporation of PI as a measure of DNA content of each cell. The % Dead cells is recorded as % of events with less than 2N DNA.
HDF are normal diploid fibroblast cells. RKO are colon adenocarcinoma cells and MES/SA are […].

[2] = system: HDF normal diploid fibroblast cells; test: MTT assay, HDF; type: cell-based, human; settings: Homo sapiens, Fibroblast, 72 h, read-out: MTT HDF IC50
Protocol: Compounds are tested for their ability to inhibit cell proliferation and cell viability. The metabolic conversion of 3-(4,5-dimethylthiazol-2-yl)-2,5-diphenyltetrazolium bromide (MTT, Sigma #M2128) to a reduced form is a commonly used measure of cellular viability. Following is the procedure:
Cells are maintained in 75 cm^2 tissue culture flasks until ready for use. The cells are grown and plated for the assay in Dulbecco's modified Eagle's media (DMEM) containing 10% fetal bovine serum. For example, the following cell lines can be used: a) human foreskin fibroblasts (HFF); b) HT29 (human colon carcinoma cell line); c)MDA-MB-468 (human breast carcinoma cell line); d) RKO (human colon adenocarcinoma cell line); e) SW620 (human colon carcinoma cell line); f) A549 (human lung carcinoma cell line); and g) MIA PACA (human pancreatic carcinoma cell line). Cells are maintained at 37° C. in 10% CO2, 90% humidified air. Cells are plated in 96-well tissue culture plates at the densities listed below. […]
Cells are returned to incubator and allowed to proliferate in the presence of compound for 72 h before addition of MTT. […] Quantitation of metabolic reduction of MTT in each plate is performed by reading optical density at 570 nm wavelength on a Molecular Devices UVmax microplate reader. Growth inhibition curves and 50% inhibitory concentrations are determined using Microsoft Excel. […]

SMILES: O=C1Nc2ccc3ncsc3c2C1=CNc1ccc(S(=O)(=O)Nc2ccccn2)cc1 [Example 72, 4-[(7-Oxo-6,7-dihydro-1-thia-3,6-diaza-as-indacen-8-ylidenemethyl)-amino]-N-pyridin-2-yl-benzenesulfonamide]
- pIC50 [1]: < 5.30
- pIC50 [2]: < 5.30
